Assay results reported in patent publication US12421254B2, “KRAS modulators and uses thereof” (Quanta Therapeutics, Inc., priority 2023, dated 2025).

Legend:
[1] = tested on: phospho-ERK in SW620 (KRAS-G12V) cells; assay: pERK In Cell Western (ICW) assay (Method B), SW620; type: cell-based
How it was run: (§1)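 3 h cpd, 37 °C, ½-log 9-pt dilution; AGS 5,000 cells/well, GP2D/SW620 10,000 cells/well, plated overnight. PFA fix, Triton perm, anti-pERK o/n 4 °C, IRDye 800 secondary + DRAQ5. pERK/DRAQ5 as % blank; IC50 4-PL.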

[2] = target: GST-tagged KRAS-G12D (2-169) (Homo sapiens, UniProt P01116, G12D); assay: Nucleotide exchange assay (NEA), SOS-mediated, HTRF, KRAS G12D; type: biochemical; settings: Table 4; IC50 extracted at 30 min; 20 nM SOScat; read-out: NEA G12D IC50
GST-tagged KRAS-G12D (2-169), sequence (P01116 2-169 isoform P01116-2 G12D): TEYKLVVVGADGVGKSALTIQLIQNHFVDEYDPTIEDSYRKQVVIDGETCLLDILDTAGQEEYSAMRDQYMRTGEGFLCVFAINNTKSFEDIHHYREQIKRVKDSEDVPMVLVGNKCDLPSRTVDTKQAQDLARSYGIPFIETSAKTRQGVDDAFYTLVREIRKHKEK
How it was run: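 Compound preincubated 1 h at RT with 0.25 nM GST-KRAS-G12D (2-169) and anti-GST Tb donor, then 20 nM SOS1cat (564-1049) and 150 nM GTP-DY-647P1 added; pH 7.3 HEPES buffer with MgCl2 and DTT. HTRF monitored at RT; % inhibition versus DMSO and no-SOS blank, 4-parameter IC50 taken at 30 min.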

[3] = tested on: phospho-ERK in GP2D (KRAS-G12D) cells; assay: pERK In Cell Western (ICW) assay (Method B), GP2D; type: cell-based
How it was run: as §1

[4] = target: GST-tagged KRAS-G12V (2-169) (Homo sapiens, UniProt P01116, G12V); assay: Nucleotide exchange assay (NEA), SOS-mediated, HTRF, KRAS G12V; type: biochemical; settings: Table 4; IC50 extracted at 90 min; 80 nM SOS
GST-tagged KRAS-G12V (2-169), sequence (P01116 2-169 isoform P01116-2 G12V): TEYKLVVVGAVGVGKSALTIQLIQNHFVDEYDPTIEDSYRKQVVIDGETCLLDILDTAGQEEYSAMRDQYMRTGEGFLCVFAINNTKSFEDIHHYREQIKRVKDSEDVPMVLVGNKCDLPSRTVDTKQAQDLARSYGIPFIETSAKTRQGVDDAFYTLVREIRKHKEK
How it was run: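 GST-KRAS-G12V (2-169), 0.25 nM, pre-incubated 1 h at RT with compound, then SOS1cat (564-1049) 80 nM and GTP-DY-647P1 150 nM added in HEPES pH 7.3 buffer with MgCl2 and DTT. HTRF via anti-GST Tb cryptate read over 90 min; IC50 from 4-parameter fit at 90 min, blanked to no-SOS reactions.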

[5] = Homo sapiens, SW-620, 3 h, Table 4

Row | SMILES | IC50 [1, 5] | IC50 [2] | IC50 ([3]; GP2d, 3 h, Table 4) | IC50 [4] | IC50 ([1]; Table 4, 3 hours) | IC50 ([3]; Table 4, 3 hours)
1 | CN(C)CC1(COc2nc(N3CC4(C3)SCc3sc(N)c(C#N)c34)nc(N3C[C@@H](F)C[C@@](C)(O)C3)n2)CC1(F)F (stereo partly drawn) [Compound 153, 2-amino-1′-[4-[[1-[(dimethylamino)methyl]-2,2-difluoro-cyclopropyl]methoxy]-6-[(3R,5S)-5-fluoro-3-hydroxy-3-methyl-1-piperidyl]-1,3,5-triazin-2-yl]spiro[6H-thieno[3,4-b]thiophene-4,3′-azetidine]-3-carbonitrile] | 10 to 100 nM | < 10 nM | < 10 nM | < 10 nM | – | –
2 | CC(c1nccnc1N)N(C)c1nc(OC[C@@]23CCCN2C[C@H](F)C3)nc(N2CC3(CCc4sc(N)c(C#N)c43)C2)n1 (single isomer, unassigned) [Compound 116A, 2-amino-1′-[4-[[(1*)-1-(3-aminopyrazin-2-yl)ethyl]-methyl-amino]-6-[[(2R,8S)-2-fluoro-1,2,3,5,6,7-hexahydropyrrolizin-8-yl]methoxy]-1,3,5-triazin-2-yl]spiro[5,6-dihydrocyclopenta[b]thiophene-4,3′-azetidine]-3-carbonitrile] | 10 to 100 nM | < 10 nM | 10 to 100 nM | < 10 nM | – | –
3 | CCN(c1nc(OC[C@@]23CCCN2C[C@H](F)C3)nc(N2CC3(CCc4sc(N)c(C#N)c43)C2=O)n1)[C@H](C)c1cccnc1N (stereo partly drawn) [Compound 201, 2-amino-1′-[4-[[(1R)-1-(2-amino-3-pyridyl)ethyl]-ethyl-amino]-6-[[(2R,8S)-2-fluoro-1,2,3,5,6,7-hexahydropyrrolizin-8-yl]methoxy]-1,3,5-triazin-2-yl]-2′-oxo-spiro[5,6-dihydrocyclopenta[b]thiophene-4,3′-azetidine]-3-carbonitrile] | 10 to 100 nM | < 10 nM | 10 to 100 nM | < 10 nM | – | –
4 | CCN(c1nc(OC[C@]2(CO)CCCN2C)nc(N2CC3(C2)SCc2sc(N)c(C#N)c23)n1)[C@H](C)c1cccnc1N [Compound 213, 2-amino-1′-[4-[[(1R)-1-(2-amino-3-pyridyl)ethyl]-ethyl-amino]-6-[[2-(hydroxymethyl)-1-methyl-pyrrolidin-2-yl]methoxy]-1,3,5-triazin-2-yl]spiro[6H-thieno[3,4-b]thiophene-4,3′-azetidine]-3-carbonitrile] | 10 to 100 nM | < 10 nM | 10 to 100 nM | < 10 nM | – | –
5 | C[C@H](c1cccnc1N)N(CCC#N)c1nc(OCC2(CN3CCOCC3)CC2)nc(N2CC3(C2)SCc2sc(N)c(C#N)c23)n1 [Compound 148, (R)-2′-amino-1-(4-((1-(2-aminopyridin-3-yl)ethyl)(2-cyanoethyl)amino)-6-((1-(morpholinomethyl)cyclopropyl)methoxy)-1,3,5-triazin-2-yl)-6′H-spiro[azetidine-3,4′-thieno[3,4-b]thiophene]-3′-carbonitrile] | < 10 nM | < 10 nM | 10 to 100 nM | < 10 nM | – | –
6 | N#Cc1c(N)sc2c1C1(CCC2)CN(c2nc(OC[C@@]34CCCN3C[C@H](F)C4)nc(N3CCCC(C#N)CC3)n2)C1 (stereo partly drawn) [Compound 39, 2-amino-1′-[4-(4-cyanoazepan-1-yl)-6-[[(2R,8S)-2-fluoro-1,2,3,5,6,7-hexahydropyrrolizin-8-yl]methoxy]-1,3,5-triazin-2-yl]spiro[6,7-dihydro-5H-benzothiophene-4,3′-azetidine]-3-carbonitrile] | 1000 to 20000 nM | 10 to 100 nM | 1000 to 20000 nM | 10 to 100 nM | – | –
7 | CC(c1cn(C)nc1N)N(C)c1nc(OC[C@@]23CCCN2C[C@H](F)C3)nc(N2CC3(CCc4sc(N)c(C#N)c43)C2)n1 (stereo partly drawn) [Compound 157, amino-1′-[4-[1-(3-amino-1-methyl-pyrazol-4-yl)ethyl-methyl-amino]-6-[[(2R,8S)-2-fluoro-1,2,3,5,6,7-hexahydropyrrolizin-8-yl]methoxy]-1,3,5-triazin-2-yl]spiro[5,6-dihydrocyclopenta[b]thiophene-4,3′-azetidine]-3-carbonitrile] | 1000 to 20000 nM | 100 to 1000 nM | 1000 to 20000 nM | 10 to 100 nM | – | –
8 | C[C@@]1(CO)C[C@@H](O)CN1c1nc(OC[C@@]23CCCN2C[C@H](F)C3)nc(N2CC3(CCc4sc(N)c(C#N)c43)C2)n1 [Compound 59, 2-amino-1′-[4-[[(2R,8S)-2-fluoro-1,2,3,5,6,7-hexahydropyrrolizin-8-yl]methoxy]-6-[(2S,4R)-4-hydroxy-2-(hydroxymethyl)-2-methyl-pyrrolidin-1-yl]-1,3,5-triazin-2-yl]spiro[5,6-dihydrocyclopenta[b]thiophene-4,3′-azetidine]-3-carbonitrile] | ≥ 20000 nM | 100 to 1000 nM | ≥ 20000 nM | 10 to 100 nM | – | –
9 | C[C@@]1(O)CCCN(c2nc(OCC3(CN4CCOCC4)CC3)nc(N3CC4(C3)c3c(sc(N)c3C#N)CC4F)n2)C1 (stereo partly drawn) [Compound 61, 2-amino-5-fluoro-1′-[4-[(3R)-3-hydroxy-3-methyl-1-piperidyl]-6-[[1-(morpholinomethyl)cyclopropyl]methoxy]-1,3,5-triazin-2-yl]spiro[5,6-dihydrocyclopenta[b]thiophene-4,3′-azetidine]-3-carbonitrile] | 100 to 1000 nM | < 10 nM | 10 to 100 nM | 10 to 100 nM | – | –
10 | CC(c1cccnc1N)N(C)c1nc(OC[C@@]23CCCN2C[C@H](F)C3)nc(N2CC3(C2)SCc2sc(N)c(C#N)c23)n1 (single isomer, unassigned) [Compound 120A, 2-amino-1′-[4-[[(1*)-1-(2-amino-3-pyridyl)ethyl]-methyl-amino]-6-[[(2R,8S)-2-fluoro-1,2,3,5,6,7-hexahydropyrrolizin-8-yl]methoxy]-1,3,5-triazin-2-yl]spiro[6H-thieno[3,4-b]thiophene-4,3′-azetidine]-3-carbonitrile] | < 10 nM | < 10 nM | < 10 nM | < 10 nM | – | –
11 | CC(c1cccnc1N)N(C)c1nc(OC[C@@]23CCCN2C[C@H](F)C3)nc(N2CC3(C2)SCc2sc(N)c(C#N)c23)n1 (single isomer, unassigned) [Compound 120B, 2-amino-1′-[4-[[(1*)-1-(2-amino-3-pyridyl)ethyl]-methyl-amino]-6-[[(2R,8S)-2-fluoro-1,2,3,5,6,7-hexahydropyrrolizin-8-yl]methoxy]-1,3,5-triazin-2-yl]spiro[6H-thieno[3,4-b]thiophene-4,3′-azetidine]-3-carbonitrile] | – | < 10 nM | – | < 10 nM | 10 to 100 nM | 10 to 100 nM
12 | CC1(C#N)CCCN(c2nc(OCC3(CN4CCOCC4)CC3)nc(N3CC4(CCc5sc(N)c(C#N)c54)C3)n2)C1 (stereo not drawn) [Compound 57, 2-amino-1′-[4-(3-cyano-3-methyl-1-piperidyl)-6-[[1-(morpholinomethyl)cyclopropyl]methoxy]-1,3,5-triazin-2-yl]spiro[5,6-dihydrocyclopenta[b]thiophene-4,3′-azetidine]-3-carbonitrile] | 1000 to 20000 nM | 100 to 1000 nM | 1000 to 20000 nM | 10 to 100 nM | – | –
13 | N#Cc1c(N)sc2c1C1(CN(c3nc(OC[C@@]45CCCN4C[C@H](F)C5)nc(N4CC(=O)Nc5ncccc5C4)n3)C1)SC2 [Compound 189, 2-amino-1′-[4-[[(2R,8S)-2-fluoro-1,2,3,5,6,7-hexahydropyrrolizin-8-yl]methoxy]-6-(2-oxo-3,5-dihydro-1H-pyrido[2,3-e][1,4]diazepin-4-yl)-1,3,5-triazin-2-yl]spiro[6H-thieno[3,4-b]thiophene-4,3′-azetidine]-3-carbonitrile] | 1000 to 20000 nM | 100 to 1000 nM | 1000 to 20000 nM | 10 to 100 nM | – | –
14 | CC(CO)N(c1nc(OC[C@@]23CCCN2C[C@H](F)C3)nc(N2CC3(C2)SCc2sc(N)c(C#N)c23)n1)C1(C#N)CC1 (stereo partly drawn) [Compound 262, 2-amino-1′-[4-[(1-cyanocyclopropyl)-(2-hydroxy-1-methyl-ethyl)amino]-6-[[(2R,8S)-2-fluoro-1,2,3,5,6,7-hexahydropyrrolizin-8-yl]methoxy]-1,3,5-triazin-2-yl]spiro[6H-thieno[3,4-b]thiophene-4,3′-azetidine]-3-carbonitrile] | 10 to 100 nM | < 10 nM | 10 to 100 nM | < 10 nM | – | –
15 | C[C@@]1(O)CCCN(c2nc(OC[C@@]34CCCN3C[C@H](F)C4)nc(N3CC4(C3)c3c(sc(N)c3C#N)CC4F)n2)C1 (stereo partly drawn) [Compound 71, 2-amino-5-fluoro-1′-[4-[[(2R,8S)-2-fluoro-1,2,3,5,6,7-hexahydropyrrolizin-8-yl]methoxy]-6-[(3R)-3-hydroxy-3-methyl-1-piperidyl]-1,3,5-triazin-2-yl]spiro[5,6-dihydrocyclopenta[b]thiophene-4,3′-azetidine]-3-carbonitrile] | 100 to 1000 nM | < 10 nM | 100 to 1000 nM | 10 to 100 nM | – | –
